From paper PMC11270571 (ACS Omega, 2024) come the findings set out here.

The target in data set [1] is human BuChE (Homo sapiens, UniProt P06276). The data set is described as follows: biochemical. As to conditions: for inhibition at 100 µM / inhibition at 1000 µM: read-out: human BuChE inhibition%.
Data set [2] concerns the target human AChE (Homo sapiens, UniProt P22303). The data set is described as follows: AChE inhibition, modified Ellman spectrophotometric method. It counts as biochemical. Particulars: for inhibition at 100 µM / inhibition at 1000 µM / inhibition at 0.001 µM / inhibition at 0.01 µM / inhibition at 0.1 µM / inhibition at 1 µM / inhibition at 10 µM: read-out: human AChE inhibition %. Background: In Ellman's method for cholinesterases, released thiocholine reacts with DTNB.

The nature of data set [3]: In vitro BBB permeability assay. It counts as in vitro ADME. As to conditions: PAMPA; for type of BBB permeation: class by Pe. (The PAMPA barrier holds no transporters, so it reflects passive diffusion.)

Entries after “also recorded” stand apart in the source; their conditions may differ.

human BuChE, sequence (P06276 29-602): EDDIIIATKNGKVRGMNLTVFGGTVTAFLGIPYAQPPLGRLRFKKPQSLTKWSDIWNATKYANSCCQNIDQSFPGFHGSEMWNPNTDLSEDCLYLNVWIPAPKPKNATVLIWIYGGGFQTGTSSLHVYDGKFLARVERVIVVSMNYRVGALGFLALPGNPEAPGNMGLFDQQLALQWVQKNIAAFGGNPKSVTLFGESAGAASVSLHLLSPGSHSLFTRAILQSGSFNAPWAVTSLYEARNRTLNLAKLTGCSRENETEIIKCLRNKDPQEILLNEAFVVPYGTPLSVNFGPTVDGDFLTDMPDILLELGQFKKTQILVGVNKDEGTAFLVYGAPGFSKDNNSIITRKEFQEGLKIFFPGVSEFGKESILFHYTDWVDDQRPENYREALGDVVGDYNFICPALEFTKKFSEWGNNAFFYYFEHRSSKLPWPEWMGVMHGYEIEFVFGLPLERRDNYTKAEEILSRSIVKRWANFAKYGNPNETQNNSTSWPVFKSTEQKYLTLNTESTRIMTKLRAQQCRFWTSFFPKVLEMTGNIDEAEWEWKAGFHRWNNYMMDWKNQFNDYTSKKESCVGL
human AChE, sequence (P22303 32-614): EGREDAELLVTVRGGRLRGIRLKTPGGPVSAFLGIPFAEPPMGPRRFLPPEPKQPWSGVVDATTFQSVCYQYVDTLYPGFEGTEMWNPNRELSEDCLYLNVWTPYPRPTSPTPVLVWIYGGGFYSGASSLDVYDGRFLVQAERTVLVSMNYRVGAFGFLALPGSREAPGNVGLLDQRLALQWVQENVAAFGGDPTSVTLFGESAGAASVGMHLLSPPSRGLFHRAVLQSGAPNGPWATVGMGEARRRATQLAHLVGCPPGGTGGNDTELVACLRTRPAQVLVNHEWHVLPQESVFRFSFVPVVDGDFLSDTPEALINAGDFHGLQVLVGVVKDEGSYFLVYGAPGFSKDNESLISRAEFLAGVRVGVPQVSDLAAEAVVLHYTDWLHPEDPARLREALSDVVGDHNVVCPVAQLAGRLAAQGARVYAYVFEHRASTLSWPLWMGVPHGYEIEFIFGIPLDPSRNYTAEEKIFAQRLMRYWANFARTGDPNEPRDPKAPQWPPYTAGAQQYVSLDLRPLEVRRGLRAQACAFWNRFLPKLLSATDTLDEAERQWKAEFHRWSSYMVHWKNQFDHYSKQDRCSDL

In general, IC50 refers to the concentration at which inhibition is half-maximal. High values mean weaker potency in that assay, low ones greater potency in that assay. What is called inhibition is how much of the control response was suppressed. As for `O=C(C=Cc1ccc(N2CCOCC2)cc1)c1ccsc1` [Compound 1, 3-(4-Morpholinophenyl)-1-(thiophen-3-yl)prop-2-en-1-one], in data set [1], the IC50 was above 1000 µM, the inhibition at 100 µM was 21.3 ± 0.84% and the inhibition at 1000 µM was found to be 46.6 ± 0.92%. For the same compound, in data set [2], the IC50 is above 100 µM, the inhibition at 100 µM was determined as 41.1 ± 1.87% and the inhibition at 1000 µM worked out at 78.3 ± 2.1%.
For the compound `c1ccc(N2N=C(c3ccsc3)CC2c2ccc(N3CCOCC3)cc2)cc1` (centres unmarked) [Compound 2a, 1-Phenyl-3-(thiophen-3-yl)-5-[4-(4-morpholinyl)phenyl]-2-pyrazoline], in data set [1], the IC50 is above 1000 µM, the inhibition at 100 µM came to 18.1 ± 0.76% and the inhibition at 1000 µM amounted to 31.1 ± 0.84%. In data set [2], inhibition was half-maximal at 0.107 ± 0.0048 µM (IC50), the inhibition at 0.001 µM is 14.7 ± 0.66%, the inhibition at 0.01 µM was 20.3 ± 0.99% and the inhibition at 0.1 µM worked out at 49.7 ± 1.74%. Further, in data set [2], the inhibition at 1 µM amounted to 82.5 ± 1.91%, the inhibition at 10 µM turned out to be 84.8 ± 1.8%, the inhibition at 100 µM turned out to be 88.6 ± 2.06% and the inhibition at 1000 µM is 91.4 ± 2.46%. Moreover, in data set [3], the “BBB permeability (in words)” value was “high BBB permeability” and the “type of BBB permeation” value was “CNS+ high BBB permeation (high BBB permeation Pe (10^–6 cm s^–1) > 4.0)”.
Take `CS(=O)(=O)c1ccc(N2N=C(c3ccsc3)CC2c2ccc(N3CCOCC3)cc2)cc1` (centres unmarked) [Compound 2b, 1-(4-Methylsulfonylphenyl)-3-(thiophen-3-yl)-5-[4-(4-morpholinyl)phenyl]-2-pyrazoline]: in data set [1], the IC50 is above 1000 µM, the inhibition at 100 µM is 15.1 ± 0.78% and the inhibition at 1000 µM turned out to be 26.4 ± 0.75%. In addition, in data set [2], the IC50 was above 1000 µM, the inhibition at 100 µM turned out to be 23.1 ± 0.95% and the inhibition at 1000 µM is 40.6 ± 1.76%.
Consider `Cc1ccc(N2N=C(c3ccsc3)CC2c2ccc(N3CCOCC3)cc2)cc1` (centres unmarked) [Compound 2c, 1-(4-Methylphenyl)-3-(thiophen-3-yl)-5-[4-(4-morpholinyl)phenyl]-2-pyrazoline], for which, in data set [1], the IC50 is above 1000 µM, the inhibition at 100 µM was found to be 20.6 ± 0.82% and the inhibition at 1000 µM came to 29.3 ± 0.99%. In addition, in data set [2], the IC50 was above 100 µM, the inhibition at 100 µM turned out to be 38.7 ± 1.34% and the inhibition at 1000 µM came to 73.6 ± 2.06%.
As for `COc1ccc(N2N=C(c3ccsc3)CC2c2ccc(N3CCOCC3)cc2)cc1` (centres unmarked) [Compound 2d, 1-(4-Methoxyphenyl)-3-(thiophen-3-yl)-5-[4-(4-morpholinyl)phenyl]-2-pyrazoline], in data set [1], the IC50 is above 1000 µM, the inhibition at 100 µM worked out at 21.1 ± 0.86% and the inhibition at 1000 µM amounted to 33.1 ± 0.99%. In addition, in data set [2], the IC50 is above 100 µM, the inhibition at 100 µM stood at 44.2 ± 1.24% and the inhibition at 1000 µM was determined as 84.5 ± 2.36%.
Take `N#Cc1ccc(N2N=C(c3ccsc3)CC2c2ccc(N3CCOCC3)cc2)cc1` (centres unmarked) [Compound 2e, 1-(4-Cyanophenyl)-3-(thiophen-3-yl)-5-[4-(4-morpholinyl)phenyl]-2-pyrazoline]: in data set [1], the IC50 was above 1000 µM, the inhibition at 100 µM came to 23.4 ± 1.06% and the inhibition at 1000 µM turned out to be 38.9 ± 1.22%. For the same compound, in data set [2], the IC50 was above 100 µM, the inhibition at 100 µM was 47.6 ± 1.85% and the inhibition at 1000 µM was determined as 81.2 ± 1.91%.
Regarding `Fc1ccc(N2N=C(c3ccsc3)CC2c2ccc(N3CCOCC3)cc2)cc1` (centres unmarked) [Compound 2f, 1-(4-Fluorophenyl)-3-(thiophen-3-yl)-5-[4-(4-morpholinyl)phenyl]-2-pyrazoline], in data set [1], the IC50 is above 1000 µM, the inhibition at 100 µM stood at 21.9 ± 0.89% and the inhibition at 1000 µM came out at 31.5 ± 1.15%. In addition, in data set [2], the IC50 is above 100 µM, the inhibition at 100 µM turned out to be 45.4 ± 1.99% and the inhibition at 1000 µM is 71.4 ± 2.46%.
With `Clc1ccc(N2N=C(c3ccsc3)CC2c2ccc(N3CCOCC3)cc2)cc1` (centres unmarked) [Compound 2g, 1-(4-Chlorophenyl)-3-(thiophen-3-yl)-5-[4-(4-morpholinyl)phenyl]-2-pyrazoline], in data set [1], the IC50 was above 1000 µM, the inhibition at 100 µM amounted to 20.8 ± 0.93% and the inhibition at 1000 µM turned out to be 25 ± 0.96%. Besides, in data set [2], the IC50 was found to be 0.122 ± 0.0051 µM, the inhibition at 0.001 µM was 15.6 ± 0.73%, the inhibition at 0.01 µM worked out at 23.1 ± 1.06% and the inhibition at 0.1 µM turned out to be 47.9 ± 0.96%. Further, in data set [2], the inhibition at 1 µM worked out at 79.5 ± 1.57%, the inhibition at 10 µM turned out to be 82.4 ± 2.17%, the inhibition at 100 µM stood at 86.6 ± 2.56% and the inhibition at 1000 µM stood at 90.7 ± 1.15%. Also, the “type of BBB permeation” value in data set [3] is “CNS ± uncertain BBB permeation”.
For the compound `Brc1ccc(N2N=C(c3ccsc3)CC2c2ccc(N3CCOCC3)cc2)cc1` (centres unmarked) [Compound 2h, 1-(4-Bromophenyl)-3-(thiophen-3-yl)-5-[4-(4-morpholinyl)phenyl]-2-pyrazoline], in data set [1], the concentration for half-maximal inhibition (IC50) is above 1000 µM, the inhibition at 100 µM came out at 26.2 ± 1.25% and the inhibition at 1000 µM came out at 40.8 ± 1.94%. In data set [2], the IC50 was above 1000 µM, the inhibition at 100 µM was 20.9 ± 0.83% and the inhibition at 1000 µM is 46.5 ± 1.94%.
`Fc1cccc(N2N=C(c3ccsc3)CC2c2ccc(N3CCOCC3)cc2)c1` (centres unmarked) [Compound 2i, 1-(3-Fluorophenyl)-3-(thiophen-3-yl)-5-[4-(4-morpholinyl)phenyl]-2-pyrazoline]: in data set [1], the IC50 is above 1000 µM, the inhibition at 100 µM stood at 27.4 ± 1.38% and the inhibition at 1000 µM came out at 36.2 ± 1.42%. In addition, in data set [2], the IC50 was above 100 µM, the inhibition at 100 µM came to 37.6 ± 1.51% and the inhibition at 1000 µM was 68.3 ± 2.15%.
`Clc1cccc(N2N=C(c3ccsc3)CC2c2ccc(N3CCOCC3)cc2)c1` (centres unmarked) [Compound 2j, 1-(3-Chlorophenyl)-3-(thiophen-3-yl)-5-[4-(4-morpholinyl)phenyl]-2-pyrazoline]: in data set [1], the IC50 is above 1000 µM, the inhibition at 100 µM is 24.9 ± 0.97% and the inhibition at 1000 µM is 34.3 ± 1.55%. Also, in data set [2], half-maximal inhibition (IC50) required 0.062 ± 0.003 µM, the inhibition at 0.001 µM worked out at 19 ± 0.63%, the inhibition at 0.01 µM was determined as 36.2 ± 0.98% and the inhibition at 0.1 µM is 60.8 ± 1.64%. Also, in data set [2], the inhibition at 1 µM was found to be 72 ± 1.78%, the inhibition at 10 µM is 80.2 ± 2.16%, the inhibition at 100 µM is 89.5 ± 1.85% and the inhibition at 1000 µM is 93.1 ± 2.85%. Further, the “type of BBB permeation” value in data set [3] is listed as “CNS ± uncertain BBB permeation”.
In the case of `Brc1cccc(N2N=C(c3ccsc3)CC2c2ccc(N3CCOCC3)cc2)c1` (centres unmarked) [Compound 2k, 1-(3-Bromophenyl)-3-(thiophen-3-yl)-5-[4-(4-morpholinyl)phenyl]-2-pyrazoline], in data set [1], the IC50 is above 1000 µM, the inhibition at 100 µM was determined as 17.6 ± 0.81% and the inhibition at 1000 µM was 29 ± 1.09%. Further, in data set [2], the IC50 is above 1000 µM, the inhibition at 100 µM was 30.3 ± 1.03% and the inhibition at 1000 µM was determined as 45.8 ± 1.72%.
As to `O=[N+]([O-])c1cccc(N2N=C(c3ccsc3)CC2c2ccc(N3CCOCC3)cc2)c1` (centres unmarked) [Compound 2l, 1-(3-Nitrophenyl)-3-(thiophen-3-yl)-5-[4-(4-morpholinyl)phenyl]-2-pyrazoline], in data set [1], the IC50 is above 1000 µM, the inhibition at 100 µM is 19.3 ± 0.82% and the inhibition at 1000 µM stood at 30.5 ± 0.97%. For the same compound, in data set [2], the IC50 came to 0.04 ± 0.0019 µM, the inhibition at 0.001 µM was found to be 19.3 ± 0.75%, the inhibition at 0.01 µM was 42.2 ± 1.52% and the inhibition at 0.1 µM stood at 64.6 ± 1.85%. In data set [2], the inhibition at 1 µM came to 75.4 ± 1.03%, the inhibition at 10 µM came to 82.6 ± 1.51%, the inhibition at 100 µM was 91.7 ± 1.92% and the inhibition at 1000 µM is 95.3 ± 2.03%. In data set [3], the “BBB permeability (in words)” value was “high blood–brain barrier permeability; also recorded: high BBB permeability” and the “type of BBB permeation” value was “CNS+ high BBB permeation (high BBB permeation Pe (10^–6 cm s^–1) > 4.0)”.
